Common to all, as to format: cell-based
The target in experiment [1] is proteins of HEK293T cells transiently overexpressing caspase-6 (Homo sapiens, UniProt P51991). As to conditions: exp_ref Probe; protein HNRNPA3 (P51991); analysis C6.
Experiment [2] has as its target T1, proteins of HEK293T cells transiently overexpressing caspase-6 (Homo sapiens, UniProt P54577).
T1 sequence (P54577 1-528): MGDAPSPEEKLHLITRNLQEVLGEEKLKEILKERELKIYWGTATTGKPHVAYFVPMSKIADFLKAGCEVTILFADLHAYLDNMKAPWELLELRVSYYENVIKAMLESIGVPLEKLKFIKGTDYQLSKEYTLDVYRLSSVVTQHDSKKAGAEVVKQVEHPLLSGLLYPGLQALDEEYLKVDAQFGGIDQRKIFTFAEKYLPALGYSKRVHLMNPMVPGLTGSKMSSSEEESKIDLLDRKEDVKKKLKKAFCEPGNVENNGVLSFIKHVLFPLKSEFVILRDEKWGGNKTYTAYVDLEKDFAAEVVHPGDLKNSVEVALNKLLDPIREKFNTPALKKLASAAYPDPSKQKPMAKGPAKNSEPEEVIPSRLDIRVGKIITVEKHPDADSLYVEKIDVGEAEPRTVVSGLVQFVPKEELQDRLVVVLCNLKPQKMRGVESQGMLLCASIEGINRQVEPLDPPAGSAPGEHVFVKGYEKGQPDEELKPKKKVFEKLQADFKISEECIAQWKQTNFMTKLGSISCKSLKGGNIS
The note with it: protein YARS (P54577), analysis C6.

Experiment [3] concerns the target proteins of HEK293T cells transiently overexpressing caspase-6 (Homo sapiens, UniProt P46777). As to conditions: exp_ref Probe; protein RPL5 (P46777); analysis C6.
Experiment [4] concerns the target proteins of HEK293T cells transiently overexpressing caspase-6 (Homo sapiens, UniProt O75390). As to conditions: exp_ref Probe; protein CS (O75390); analysis C6.
Experiment [5] deals with proteins of HEK293T cells transiently overexpressing caspase-6 (Homo sapiens, UniProt P18621). The note with it: exp_ref Probe; protein RPL17 (P18621); analysis C6.
The target in experiment [6] is proteins of HEK293T cells transiently overexpressing caspase-6 (Homo sapiens, UniProt Q9Y224). As to conditions: Probe; protein C14orf166 Q9Y224.
proteins of HEK293T cells transiently overexpressing caspase-6 (Homo sapiens, UniProt Q9Y224), sequence (Q9Y224 whole entry): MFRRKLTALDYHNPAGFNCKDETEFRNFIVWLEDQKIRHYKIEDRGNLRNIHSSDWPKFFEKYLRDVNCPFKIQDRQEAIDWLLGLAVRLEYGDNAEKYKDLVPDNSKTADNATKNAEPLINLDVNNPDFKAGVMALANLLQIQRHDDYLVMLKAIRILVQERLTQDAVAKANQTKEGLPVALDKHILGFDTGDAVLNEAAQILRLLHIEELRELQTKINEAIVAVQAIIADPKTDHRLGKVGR
Experiment [7] has as its target proteins of HEK293T cells transiently overexpressing caspase-6 (Homo sapiens, UniProt P35579). As to conditions: Probe; protein MYH9 P35579.
In experiment [8] the target is T2, proteins of HEK293T cells transiently overexpressing caspase-6 (Homo sapiens, UniProt P54136).
T2 sequence (P54136 1-660): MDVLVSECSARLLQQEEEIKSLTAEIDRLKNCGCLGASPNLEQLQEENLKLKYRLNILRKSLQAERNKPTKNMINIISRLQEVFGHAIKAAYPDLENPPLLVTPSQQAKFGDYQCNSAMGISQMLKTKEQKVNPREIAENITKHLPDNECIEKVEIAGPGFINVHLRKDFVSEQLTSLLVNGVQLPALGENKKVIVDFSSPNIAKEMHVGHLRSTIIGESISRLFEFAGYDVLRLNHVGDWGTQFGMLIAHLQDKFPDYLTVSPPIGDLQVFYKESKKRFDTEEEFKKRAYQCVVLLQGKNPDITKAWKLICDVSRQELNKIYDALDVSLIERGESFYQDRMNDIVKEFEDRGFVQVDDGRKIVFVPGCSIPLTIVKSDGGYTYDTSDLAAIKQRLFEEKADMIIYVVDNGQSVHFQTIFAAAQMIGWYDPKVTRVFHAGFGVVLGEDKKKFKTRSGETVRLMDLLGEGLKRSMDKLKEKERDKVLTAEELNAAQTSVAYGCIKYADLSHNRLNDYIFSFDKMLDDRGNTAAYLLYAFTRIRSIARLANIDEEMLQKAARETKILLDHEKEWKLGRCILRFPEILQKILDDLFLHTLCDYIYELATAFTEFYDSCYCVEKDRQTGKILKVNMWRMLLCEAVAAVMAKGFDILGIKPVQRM
As to conditions: exp_ref Probe; protein RARS (P54136); analysis C6.

Experiment [9] concerns the target proteins of HEK293T cells transiently overexpressing caspase-6 (Homo sapiens, UniProt P27797). As to conditions: exp_ref Probe; protein CALR (P27797); analysis C6.

Molecules are shown by their SMILES.

proteins of HEK293T cells transiently overexpressing caspase-6 (Homo sapiens, UniProt P35579), sequence (P35579 whole entry): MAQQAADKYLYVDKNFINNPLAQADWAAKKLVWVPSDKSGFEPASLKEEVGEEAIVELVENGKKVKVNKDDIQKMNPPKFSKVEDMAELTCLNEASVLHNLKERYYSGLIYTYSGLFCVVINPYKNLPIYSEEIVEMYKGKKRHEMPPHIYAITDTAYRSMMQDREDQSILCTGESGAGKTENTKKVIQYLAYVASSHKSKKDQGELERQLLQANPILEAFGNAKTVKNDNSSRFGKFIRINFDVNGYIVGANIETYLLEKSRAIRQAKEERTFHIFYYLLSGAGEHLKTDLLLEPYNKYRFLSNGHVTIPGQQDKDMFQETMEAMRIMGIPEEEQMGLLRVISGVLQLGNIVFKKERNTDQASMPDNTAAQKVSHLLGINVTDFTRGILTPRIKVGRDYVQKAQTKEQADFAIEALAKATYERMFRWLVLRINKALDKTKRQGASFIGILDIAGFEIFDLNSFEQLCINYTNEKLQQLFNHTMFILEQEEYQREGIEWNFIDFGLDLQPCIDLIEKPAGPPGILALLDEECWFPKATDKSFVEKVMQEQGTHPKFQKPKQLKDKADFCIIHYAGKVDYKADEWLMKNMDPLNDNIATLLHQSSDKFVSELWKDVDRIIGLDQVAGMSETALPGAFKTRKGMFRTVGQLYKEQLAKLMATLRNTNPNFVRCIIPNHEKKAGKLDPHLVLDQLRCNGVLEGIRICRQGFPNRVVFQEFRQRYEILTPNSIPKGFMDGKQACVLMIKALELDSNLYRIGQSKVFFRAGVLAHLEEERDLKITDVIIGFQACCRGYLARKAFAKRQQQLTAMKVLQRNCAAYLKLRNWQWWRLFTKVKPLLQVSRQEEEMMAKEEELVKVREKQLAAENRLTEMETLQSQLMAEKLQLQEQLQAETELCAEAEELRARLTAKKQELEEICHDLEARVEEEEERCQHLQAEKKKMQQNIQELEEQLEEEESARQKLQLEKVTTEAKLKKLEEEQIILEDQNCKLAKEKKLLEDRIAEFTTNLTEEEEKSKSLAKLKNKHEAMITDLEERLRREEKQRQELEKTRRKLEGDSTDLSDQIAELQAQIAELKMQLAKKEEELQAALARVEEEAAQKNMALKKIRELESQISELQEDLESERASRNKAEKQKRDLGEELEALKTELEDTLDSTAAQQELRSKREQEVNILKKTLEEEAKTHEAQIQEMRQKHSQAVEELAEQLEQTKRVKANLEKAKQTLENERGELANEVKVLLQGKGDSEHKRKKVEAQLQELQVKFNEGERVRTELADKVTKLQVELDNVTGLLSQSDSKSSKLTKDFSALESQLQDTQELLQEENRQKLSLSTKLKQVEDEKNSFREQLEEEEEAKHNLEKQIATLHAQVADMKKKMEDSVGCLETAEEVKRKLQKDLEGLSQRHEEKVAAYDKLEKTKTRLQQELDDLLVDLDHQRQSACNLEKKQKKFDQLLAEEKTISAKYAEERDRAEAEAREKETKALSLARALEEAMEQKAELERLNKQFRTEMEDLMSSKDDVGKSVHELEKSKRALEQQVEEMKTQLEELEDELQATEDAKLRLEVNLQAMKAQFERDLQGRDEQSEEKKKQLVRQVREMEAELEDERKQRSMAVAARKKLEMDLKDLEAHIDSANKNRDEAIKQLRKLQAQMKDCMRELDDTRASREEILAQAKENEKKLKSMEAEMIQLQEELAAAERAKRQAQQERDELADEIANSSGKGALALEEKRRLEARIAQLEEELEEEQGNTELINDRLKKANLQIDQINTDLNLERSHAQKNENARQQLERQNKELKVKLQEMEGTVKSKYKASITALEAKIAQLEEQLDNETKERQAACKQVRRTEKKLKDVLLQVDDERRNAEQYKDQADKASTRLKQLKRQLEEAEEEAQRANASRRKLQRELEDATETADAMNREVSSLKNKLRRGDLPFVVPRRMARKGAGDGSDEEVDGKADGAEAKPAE
proteins of HEK293T cells transiently overexpressing caspase-6 (Homo sapiens, UniProt P51991), sequence (P51991 whole entry): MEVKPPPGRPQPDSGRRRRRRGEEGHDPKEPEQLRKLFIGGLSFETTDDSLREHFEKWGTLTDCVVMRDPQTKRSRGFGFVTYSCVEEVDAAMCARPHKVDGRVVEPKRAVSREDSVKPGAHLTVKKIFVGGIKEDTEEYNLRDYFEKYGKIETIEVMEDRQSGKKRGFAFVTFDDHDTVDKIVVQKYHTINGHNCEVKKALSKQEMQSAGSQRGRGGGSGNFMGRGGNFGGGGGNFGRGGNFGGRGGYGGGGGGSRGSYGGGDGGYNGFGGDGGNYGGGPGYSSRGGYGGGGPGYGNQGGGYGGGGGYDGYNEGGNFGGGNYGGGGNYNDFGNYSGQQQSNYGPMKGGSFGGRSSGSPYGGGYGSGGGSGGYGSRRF
proteins of HEK293T cells transiently overexpressing caspase-6 (Homo sapiens, UniProt O75390), sequence (O75390 28-466): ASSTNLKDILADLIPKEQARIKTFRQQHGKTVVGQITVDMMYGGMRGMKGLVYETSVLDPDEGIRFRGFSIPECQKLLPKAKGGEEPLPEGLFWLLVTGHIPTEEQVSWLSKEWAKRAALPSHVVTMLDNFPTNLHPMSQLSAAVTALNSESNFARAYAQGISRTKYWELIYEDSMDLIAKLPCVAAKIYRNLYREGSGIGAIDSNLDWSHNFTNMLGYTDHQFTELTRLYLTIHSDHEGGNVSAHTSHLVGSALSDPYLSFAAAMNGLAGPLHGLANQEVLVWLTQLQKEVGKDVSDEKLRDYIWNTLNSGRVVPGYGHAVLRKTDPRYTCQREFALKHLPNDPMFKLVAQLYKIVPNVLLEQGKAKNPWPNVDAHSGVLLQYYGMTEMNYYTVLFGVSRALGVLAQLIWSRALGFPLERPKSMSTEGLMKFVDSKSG
proteins of HEK293T cells transiently overexpressing caspase-6 (Homo sapiens, UniProt P27797), sequence (P27797 18-417): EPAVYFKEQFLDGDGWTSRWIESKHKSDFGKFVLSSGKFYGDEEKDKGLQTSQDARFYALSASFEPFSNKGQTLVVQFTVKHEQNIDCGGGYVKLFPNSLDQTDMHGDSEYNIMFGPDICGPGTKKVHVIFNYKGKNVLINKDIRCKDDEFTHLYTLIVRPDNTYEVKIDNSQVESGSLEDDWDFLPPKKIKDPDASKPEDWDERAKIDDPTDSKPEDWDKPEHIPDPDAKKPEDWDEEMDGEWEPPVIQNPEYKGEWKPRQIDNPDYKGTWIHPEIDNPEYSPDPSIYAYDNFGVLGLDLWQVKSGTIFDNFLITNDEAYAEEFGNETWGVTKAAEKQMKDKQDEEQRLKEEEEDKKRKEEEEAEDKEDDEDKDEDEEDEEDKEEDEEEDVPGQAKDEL

On to `C#CCOc1ccc([C@@H]2C[C@@H](C(=O)Nc3ccc(OC(F)(F)F)cc3)CN(S(=O)(=O)C=C)C2)cc1` (relative stereo) [13-t], for which the enrich.exp.med was 0.2112 in [1]; 3.427 in experiment [2] (exp_ref Probe); 0.3142 in [3]; -0.1126 in experiment [4]; 0.5148 in [5]; -1.579 in [6]. The enrich.exp.med in experiment [7] is listed as -0.6242; in experiment [8], 0.9191; in experiment [9], 0.5687. Also, the enrich.exp.med.lin in experiment [2] (Expt Probe) was determined as 10.7591. For the same compound, in [2] (Expt Probe), the enrich.exp.med.log2 worked out at 3.427.

Source of the values: article PMC10176470, “Engaging a Non-catalytic Cysteine Residue Drives Potent and Selective Inhibition of Caspase-6” (Journal of the American Chemical Society, 2023).
